Assay results from the supplement of paper PMC11451515.

Assays:
Conditions in all cases: 48 h
[1] = test system: P12-Ichikawa; experiment: AUC of viability dose-response curve (% viability x log10 dose units); higher = less sensitive
How it was run: (§1)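 Leukemia cells adapted to each medium were seeded in 1536-well plates (500 or 1000 cells/well) and given library compounds in DMSO for 48 h at 37°C. The 11 threefold doses spanned 47 μM to 0.79 nM, and CellTiter-Glo One luminescence was normalised per plate to DMSO and cell-free wells before four-parameter log-logistic fitting on log10 dose. Area under the curve was integrated with the trapezoidal rule, scaling curves above full viability and removing curves that failed quality control.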

[2] = test system: NOMO1; experiment: as above
How it was run: as §1

[3] = test system: SEM cells; experiment: as above
How it was run: as §1

[4] = test system: SEM cells; experiment: cell viability relative to DMSO control; higher = less cytotoxic
How it was run: (§2)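 Viability values are per-plate percentages of DMSO wells, with background from cell-free wells. Library compounds in DMSO were pin-dosed, in an 11-point threefold series from 47 μM to 0.79 nM, onto NOMO1 or SEM (500 cells/well) or P12-Ichikawa (1000 cells/well) leukemia cells in 1536-well plates (5 μl). Those cells had been adapted for at least four passages in each medium, and CellTiter-Glo One luminescence was read after 48 h at 37°C.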

[5] = test system: P12-Ichikawa; experiment: as above
How it was run: as §2

[6] = test system: NOMO1; experiment: as above
How it was run: as §2

C=C[C@H]1CN2CCC1C[C@H]2[C@H](O)c1ccnc2ccccc12 (some centres undefined)
AUC of viability dose-response curve
Conditions	[1]	[2]	[3]
HPLM + 10% dialyzed FBS	458	451	449
RPMI 5 mM glucose + 10% FBS	451	461	441
RPMI 5 mM glucose + 10% dialyzed FBS	461	433	452

[4], RPMI 5 mM glucose + 10% dialyzed FBS
Conditions	cell viability [%]
0.000781 µM	123
0.00234 µM	120
0.00702 µM	122
0.0211 µM	133
0.0632 µM	126
0.19 µM	138
0.569 µM	132
1.71 µM	133
5.12 µM	108
15.4 µM	110
46.1 µM	55.1

CCC[S+](=O)([O-])Nc1ccc(F)c(C(=O)c2c[nH]c3ncc(-c4ccc(Cl)cc4)cc23)c1F
AUC of viability dose-response curve
Conditions	[1]	[2]	[3]
HPLM + 10% dialyzed FBS	455	445	470
RPMI 5 mM glucose + 10% FBS	452	477	474
RPMI 5 mM glucose + 10% dialyzed FBS	446	461	464

cell viability [%]
Conditions	[4]	[5]	[6]
HPLM + 10% dialyzed FBS, 0.000781 µM	115	116	124
HPLM + 10% dialyzed FBS, 0.00234 µM	123	110	112
HPLM + 10% dialyzed FBS, 0.00702 µM	122	107	113
HPLM + 10% dialyzed FBS, 0.0211 µM	115	115	116
HPLM + 10% dialyzed FBS, 0.0632 µM	119	114	143
HPLM + 10% dialyzed FBS, 0.19 µM	124	107	132
HPLM + 10% dialyzed FBS, 0.569 µM	134	108	108
HPLM + 10% dialyzed FBS, 1.71 µM	123	105	99.7
HPLM + 10% dialyzed FBS, 5.12 µM	131	99.9	108
HPLM + 10% dialyzed FBS, 15.4 µM	115	98.5	116
HPLM + 10% dialyzed FBS, 46.1 µM	104	93.5	93.2
RPMI 5 mM glucose + 10% FBS, 0.000781 µM	105	116	101
RPMI 5 mM glucose + 10% FBS, 0.00234 µM	126	109	113
RPMI 5 mM glucose + 10% FBS, 0.00702 µM	120	117	112
RPMI 5 mM glucose + 10% FBS, 0.0211 µM	99.5	110	103
RPMI 5 mM glucose + 10% FBS, 0.0632 µM	127	118	117
RPMI 5 mM glucose + 10% FBS, 0.19 µM	126	110	113
RPMI 5 mM glucose + 10% FBS, 0.569 µM	128	99.1	106
RPMI 5 mM glucose + 10% FBS, 1.71 µM	121	110	120
RPMI 5 mM glucose + 10% FBS, 5.12 µM	128	108	112
RPMI 5 mM glucose + 10% FBS, 15.4 µM	119	96.4	111
RPMI 5 mM glucose + 10% FBS, 46.1 µM	107	98.2	98.9
RPMI 5 mM glucose + 10% dialyzed FBS, 0.000781 µM	113	124	113
RPMI 5 mM glucose + 10% dialyzed FBS, 0.00234 µM	98.5	120	116
RPMI 5 mM glucose + 10% dialyzed FBS, 0.00702 µM	113	122	112
RPMI 5 mM glucose + 10% dialyzed FBS, 0.0211 µM	121	120	129
RPMI 5 mM glucose + 10% dialyzed FBS, 0.0632 µM	125	125	109
RPMI 5 mM glucose + 10% dialyzed FBS, 0.19 µM	120	120	112
RPMI 5 mM glucose + 10% dialyzed FBS, 0.569 µM	128	113	121
RPMI 5 mM glucose + 10% dialyzed FBS, 1.71 µM	113	107	107
RPMI 5 mM glucose + 10% dialyzed FBS, 5.12 µM	134	108	108
RPMI 5 mM glucose + 10% dialyzed FBS, 15.4 µM	122	103	112
RPMI 5 mM glucose + 10% dialyzed FBS, 46.1 µM	109	95.2	94.5

C\C1=N\N(C(=O)C1)C2=CC=CC=C2
AUC of viability dose-response curve
Conditions	[1]	[2]	[3]
HPLM + 10% dialyzed FBS	471	467	465
RPMI 5 mM glucose + 10% FBS	458	467	465
RPMI 5 mM glucose + 10% dialyzed FBS	473	462	473

cell viability [%], [4]
Conditions	HPLM + 10% dialyzed FBS	RPMI 5 mM glucose + 10% FBS
0.000781 µM	102	113
0.00234 µM	104	121
0.00702 µM	121	129
0.0211 µM	136	119
0.0632 µM	130	130
0.19 µM	121	117
0.569 µM	112	121
1.71 µM	130	123
5.12 µM	121	132
15.4 µM	118	130
46.1 µM	111	117
